Data published in US10865208B2, “ATG7 inhibitors and the uses thereof” (Millennium Pharmaceuticals, Inc., priority 2016, dated 2020).

Target: recombinant human His-ATG7 enzyme (Homo sapiens (Human), UniProt O95352)
Assay: ATG7 Enzyme Assay (HTRF/FRET, ATG3-GST and Flag-Gabarap)
Assay type: biochemical
Details: for inhibition at 0.123 µM: Concentration 0.123 μM; for inhibition at 0.123 µM / inhibition at 0.069 µM / inhibition at 0.111 µM: read-out: Percent Inhibition; for inhibition at 0.069 µM: Concentration 0.069 μM; for inhibition at 0.111 µM: Concentration 0.111 μM
Summary of the method: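 0.15 nM His-ATG7 was reacted with 5 nM ATG3-GST, 5 nM Flag-Gabarap and 10 μM ATP in HEPES pH 7.5 containing MgCl2, GSH and TCEP for 105 min at 24° C, then stopped with EDTA/KF. Eu-anti-Flag and anti-GST-APC HTRF was read after 2 h. Results are given as single-concentration % inhibition or IC50.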

Chain of recombinant human His-ATG7 enzyme (O95352 whole entry): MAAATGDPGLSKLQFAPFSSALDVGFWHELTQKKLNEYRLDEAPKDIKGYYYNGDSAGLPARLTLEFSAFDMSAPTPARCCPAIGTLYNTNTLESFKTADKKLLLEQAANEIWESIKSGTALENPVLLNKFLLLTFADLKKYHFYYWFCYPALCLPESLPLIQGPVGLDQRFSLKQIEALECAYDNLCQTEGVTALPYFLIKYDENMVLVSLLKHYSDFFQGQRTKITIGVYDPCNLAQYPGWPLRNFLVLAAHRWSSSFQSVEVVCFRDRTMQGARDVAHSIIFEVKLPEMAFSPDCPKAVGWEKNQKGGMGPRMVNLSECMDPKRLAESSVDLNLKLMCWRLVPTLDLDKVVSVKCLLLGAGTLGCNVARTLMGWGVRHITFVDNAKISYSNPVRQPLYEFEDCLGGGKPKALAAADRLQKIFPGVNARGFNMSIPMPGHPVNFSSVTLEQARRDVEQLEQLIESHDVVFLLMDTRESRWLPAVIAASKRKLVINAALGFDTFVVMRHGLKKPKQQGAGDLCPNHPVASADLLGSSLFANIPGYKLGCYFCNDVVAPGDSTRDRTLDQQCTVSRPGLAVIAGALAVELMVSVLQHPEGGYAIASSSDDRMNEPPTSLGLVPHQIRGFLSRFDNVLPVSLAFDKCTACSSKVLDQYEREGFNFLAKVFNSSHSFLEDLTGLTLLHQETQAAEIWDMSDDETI

SMILES	IC50	inhibition at 0.123 µM	inhibition at 0.069 µM	inhibition at 0.111 µM
Nc1ncnc2c1cnn2[C@@H]1O[C@H](COS(N)(=O)=O)[C@@H](O)[C@H]1O [Compound I-48, [(2R,3S,4R,5R)-5-(4-amino-1H-pyrazolo[3,4-d]pyrimidin-1-yl)-3,4-dihydroxytetrahydrofuran-2-yl]methyl sulfamate]	0.1 to 0.5 µM		16%	
Nc1ncnc2c1c(SCc1ccccc1)nn2[C@@H]1O[C@H](COS(N)(=O)=O)[C@@H](O)[C@H]1O [Compound I-52, {(2R,3S,4R,5R)-5-[4-amino-3-(benzylsulfanyl)-1H-pyrazolo[3,4-d]pyrimidin-1-yl]-3,4-dihydroxytetrahydrofuran-2-yl}methyl sulfamate]	0.02 to 0.05 µM	83%		
Nc1ncnc2c1c(SC1CCC1)nn2[C@@H]1O[C@H](COS(N)(=O)=O)[C@@H](O)[C@H]1O [Compound I-56, {(2R,3S,4R,5R)-5-[4-amino-3-(cyclobutylsulfanyl)-1H-pyrazolo[3,4-d]pyrimidin-1-yl]-3,4-dihydroxytetrahydrofuran-2-yl}methyl sulfamate]	< 0.02 µM			84%
Nc1ncnc2c1c(-c1ncco1)nn2[C@@H]1O[C@H](COS(N)(=O)=O)[C@@H](O)[C@H]1O [Compound I-57, {(2R,3S,4R,5R)-5-[4-amino-3-(1,3-oxazol-2-yl)-1H-pyrazolo[3,4-d]pyrimidin-1-yl]-3,4-dihydroxytetrahydrofuran-2-yl}methyl sulfamate]	> 0.5 µM	13%		
CC(C)Sc1nn([C@@H]2O[C@H](COS(N)(=O)=O)[C@@H](O)[C@H]2O)c2ncnc(N)c12 [Compound I-58, {(2R,3S,4R,5R)-5-[4-amino-3-(isopropylsulfanyl)-1H-pyrazolo[3,4-d]pyrimidin-1-yl]-3,4-dihydroxytetrahydrofuran-2-yl}methyl Sulfamate]	< 0.02 µM	87%		
Nc1ncnc2c1c(SCc1ccccn1)nn2[C@@H]1O[C@H](COS(N)(=O)=O)[C@@H](O)[C@H]1O [Compound I-59, [(2R,3S,4R,5R)-5-{4-amino-3-[(pyridin-2-ylmethyl)sulfanyl]-1H-pyrazolo[3,4-d]pyrimidin-1-yl}-3,4-dihydroxytetrahydrofuran-2-yl]methyl sulfamate]	0.02 to 0.05 µM	75%		
NC(=S)c1nn([C@@H]2O[C@H](COS(N)(=O)=O)[C@@H](O)[C@H]2O)c2ncnc(N)c12 [Compound I-60, [(2R,3S,4R,5R)-5-(4-amino-3-carbamothioyl-1H-pyrazolo[3,4-d]pyrimidin-1-yl)-3,4-dihydroxytetrahydrofuran-2-yl]methyl Sulfamate]	0.05 to 0.1 µM	59%		
Cn1cc(Sc2nn([C@@H]3O[C@H](COS(N)(=O)=O)[C@@H](O)[C@H]3O)c3ncnc(N)c23)cn1 [Compound I-61, [(2R,3S,4R,5R)-5-{4-amino-3-[(1-methyl-1H-pyrazol-4-yl)sulfanyl]-1H-pyrazolo[3,4-d]pyrimidin-1-yl}-3,4-dihydroxytetrahydrofuran-2-yl]methyl sulfamate]	0.02 to 0.05 µM	83%		
Nc1ncnc2c1c(SC1CCCC1)nn2[C@@H]1O[C@H](COS(N)(=O)=O)[C@@H](O)[C@H]1O [Compound I-62, {(2R,3S,4R,5R)-5-[4-amino-3-(cyclopentylsulfanyl)-1H-pyrazolo[3,4-d]pyrimidin-1-yl]-3,4-dihydroxytetrahydrofuran-2-yl}methyl sulfamate]	< 0.02 µM	89%		
Nc1ncnc2c1c(SCc1ccc(F)cc1)nn2[C@@H]1O[C@H](COS(N)(=O)=O)[C@@H](O)[C@H]1O [Compound I-63, [(2R,3S,4R,5R)-5-{4-amino-3-[(4-fluorobenzyl)sulfanyl]-1H-pyrazolo[3,4-d]pyrimidin-1-yl}-3,4-dihydroxytetrahydrofuran-2-yl]methyl sulfamate]	0.02 to 0.05 µM			83%
Nc1ncnc2c1c(Sc1ccc(Cl)cc1)nn2[C@@H]1O[C@H](COS(N)(=O)=O)[C@@H](O)[C@H]1O [Compound I-64, [(2R,3S,4R,5R)-5-{4-amino-3-[(4-chlorophenyl)sulfanyl]-1H-pyrazolo[3,4-d]pyrimidin-1-yl}-3,4-dihydroxytetrahydrofuran-2-yl]methyl sulfamate]	0.02 to 0.05 µM	84%		
Nc1ncnc2c1c(SC1CC1)nn2[C@@H]1O[C@H](COS(N)(=O)=O)[C@@H](O)[C@H]1O [Compound I-65, {(2R,3S,4R,5R)-5-[4-amino-3-(cyclopropylsulfanyl)-1H-pyrazolo[3,4-d]pyrimidin-1-yl]-3,4-dihydroxytetrahydrofuran-2-yl}methyl Sulfamate]	< 0.02 µM	89%		
Nc1ncnc2c1c(SCc1cccc3ccccc13)nn2[C@@H]1O[C@H](COS(N)(=O)=O)[C@@H](O)[C@H]1O [Compound I-67, [(2R,3S,4R,5R)-5-{4-amino-3-[(1-naphthylmethyl)sulfanyl]-1H-pyrazolo[3,4-d]pyrimidin-1-yl}-3,4-dihydroxytetrahydrofuran-2-yl]methyl sulfamate]	0.05 to 0.1 µM	64%		

Further lines, results first:

IC50	inhibition at 0.123 µM	inhibition at 0.069 µM	inhibition at 0.111 µM	SMILES
< 0.02 µM	88%			Nc1ncnc2c1c(SCCO)nn2[C@@H]1O[C@H](COS(N)(=O)=O)[C@@H](O)[C@H]1O [Compound I-46, [(2R,3S,4R,5R)-5-{4-amino-3-[(2-hydroxyethyl)sulfanyl]-1H-pyrazolo[3,4-d]pyrimidin-1-yl}-3,4-dihydroxytetrahydrofuran-2-yl]methyl sulfamate]
> 0.5 µM		7%		Nc1ncnc2c1c(-c1ccccc1)nn2[C@@H]1O[C@H](COS(N)(=O)=O)[C@@H](O)[C@H]1O [Compound I-49, [(2R,3S,4R,5R)-5-(4-amino-3-phenyl-1H-pyrazolo[3,4-d]pyrimidin-1-yl)-3,4-dihydroxytetrahydrofuran-2-yl]methyl Sulfamate]
< 0.02 µM			88%	Nc1ncnc2c1c(SCC1CC1)nn2[C@@H]1O[C@H](COS(N)(=O)=O)[C@@H](O)[C@H]1O [Compound I-50, [(2R,3S,4R,5R)-5-{4-amino-3-[(cyclopropylmethyl)sulfanyl]-1H-pyrazolo[3,4-d]pyrimidin-1-yl}-3,4-dihydroxytetrahydrofuran-2-yl]methyl sulfamate]
0.02 to 0.05 µM	85%			CCSc1nn([C@@H]2O[C@H](COS(N)(=O)=O)[C@@H](O)[C@H]2O)c2ncnc(N)c12 [Compound I-51, {(2R,3S,4R,5R)-5-[4-amino-3-(ethylsulfanyl)-1H-pyrazolo[3,4-d]pyrimidin-1-yl]-3,4-dihydroxytetrahydrofuran-2-yl}methyl sulfamate]
0.02 to 0.05 µM	82%			CC(C)(C)Sc1nn([C@@H]2O[C@H](COS(N)(=O)=O)[C@@H](O)[C@H]2O)c2ncnc(N)c12 [Compound I-53, {(2R,3S,4R,5R)-5-[4-amino-3-(tert-butylsulfanyl)-1H-pyrazolo[3,4-d]pyrimidin-1-yl]-3,4-dihydroxytetrahydrofuran-2-yl}methyl sulfamate]
0.02 to 0.05 µM	68%			Nc1ncnc2c1c(Sc1ccncc1)nn2[C@@H]1O[C@H](COS(N)(=O)=O)[C@@H](O)[C@H]1O [Compound I-66, {(2R,3S,4R,5R)-5-[4-amino-3-(pyridin-4-ylsulfanyl)-1H-pyrazolo[3,4-d]pyrimidin-1-yl]-3,4-dihydroxytetrahydrofuran-2-yl}methyl sulfamate]
